Reference: PMC9792776 (Frontiers in Pharmacology, 2022)
Like-named read-outs stand apart in the source and are kept apart here.

Assays:
CYP2C9 [1] = system: CYP2C9
OCT2 = target: T1, OCT2 (Homo sapiens, UniProt O15244); experiment: Transporter substrate/inhibitor assessment, OCT2; assay type: in vitro ADME
T1 sequence (O15244 1-555): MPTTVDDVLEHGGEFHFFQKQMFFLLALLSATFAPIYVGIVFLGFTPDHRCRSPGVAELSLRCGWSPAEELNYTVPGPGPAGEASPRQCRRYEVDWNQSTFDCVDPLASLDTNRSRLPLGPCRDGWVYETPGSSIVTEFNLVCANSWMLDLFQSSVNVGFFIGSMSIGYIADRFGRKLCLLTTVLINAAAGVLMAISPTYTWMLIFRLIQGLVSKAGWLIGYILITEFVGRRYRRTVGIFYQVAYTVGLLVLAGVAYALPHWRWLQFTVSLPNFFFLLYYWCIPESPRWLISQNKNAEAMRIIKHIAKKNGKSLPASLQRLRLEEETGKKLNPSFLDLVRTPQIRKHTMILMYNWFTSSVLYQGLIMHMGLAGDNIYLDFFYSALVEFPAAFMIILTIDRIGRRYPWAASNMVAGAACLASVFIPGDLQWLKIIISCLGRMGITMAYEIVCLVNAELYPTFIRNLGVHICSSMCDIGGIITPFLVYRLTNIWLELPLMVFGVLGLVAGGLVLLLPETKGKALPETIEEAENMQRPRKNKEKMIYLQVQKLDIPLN

[2] = Log Po:w (octanol-water partition coefficient); assay type: physicochemical
Description: (§1) TABLE 1 Model development and model parameters. | column: Value

pKa = assay type: physicochemical
Description: as §1

CYP2C9 [3] = target: T2, CYP2C9 (Homo sapiens, UniProt P11712); experiment: Intrinsic clearance in human recombinant CYP2C9
[4] = Blood/plasma (B/P) ratio in healthy volunteer blood; assay type: in vitro ADME, human
Description: Besides, the B/P ratio was obtained from healthy volunteer blood, however, in patients with CML, too many myeloid cells become granulocytes (red blood cells, platelets and several white blood cell types). So, red blood cell count might change B/P ratio in CML patients. […] Furthermore, the model simulation for liver cirrhosis patients was not validated by clinical data. We believe that further research is needed on this point.

P-gp [5] = target: T3, P-gp (Homo sapiens, UniProt P08183); experiment: P-gp substrate and in vivo inhibition assessment
Description: The effects of transporters expressed on the gut and liver have not been investigated.

OATP1B3 = target: T4, OATP1B3 (Homo sapiens, UniProt Q9NPD5); experiment: Transporter substrate/inhibitor assessment, OATP1B3; assay type: in vitro ADME
T4 sequence (Q9NPD5 1-702): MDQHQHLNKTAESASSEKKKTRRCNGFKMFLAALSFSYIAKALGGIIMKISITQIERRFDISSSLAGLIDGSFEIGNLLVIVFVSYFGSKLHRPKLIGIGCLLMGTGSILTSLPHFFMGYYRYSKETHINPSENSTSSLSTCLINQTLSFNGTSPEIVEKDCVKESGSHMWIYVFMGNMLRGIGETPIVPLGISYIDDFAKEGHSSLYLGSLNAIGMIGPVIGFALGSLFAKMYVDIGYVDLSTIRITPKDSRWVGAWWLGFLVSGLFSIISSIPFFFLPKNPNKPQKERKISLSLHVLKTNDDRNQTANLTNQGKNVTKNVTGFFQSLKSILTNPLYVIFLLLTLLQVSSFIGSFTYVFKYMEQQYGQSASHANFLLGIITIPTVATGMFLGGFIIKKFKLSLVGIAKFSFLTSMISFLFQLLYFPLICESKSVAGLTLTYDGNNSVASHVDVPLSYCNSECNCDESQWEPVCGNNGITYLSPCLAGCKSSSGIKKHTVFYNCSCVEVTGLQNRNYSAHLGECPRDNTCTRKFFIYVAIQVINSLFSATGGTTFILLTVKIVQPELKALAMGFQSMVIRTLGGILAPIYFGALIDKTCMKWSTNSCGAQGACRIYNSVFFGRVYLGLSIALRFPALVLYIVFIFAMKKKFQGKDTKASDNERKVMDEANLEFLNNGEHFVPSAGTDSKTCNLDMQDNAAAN

[6] = Phase 1 dose escalation study (renal clearance); conditions: human, in vivo; 12 Chinese patients, 50 mg oral on Day 1
CYP2C9 [7] = target: T2, CYP2C9; experiment: CYP2C9 inhibition in human liver microsomes (diclofenac probe)
Protocol: Ki=IC50/1+S/Km (1) Where IC50 signifies the half-maximum inhibitory concentration; S, the concentration of P450 marker substrate; and K m , the Michaelis constant within the Michaelis-Menten equation, which is in turn used to characterize substrate-enzyme binding kinetics.
The Michaelis constant (K m ) of CYP2C9 incubated with diclofenac was obtained from reported data ([Lee et al., 2014]). Methods used to calculate the Ki of CYP2C19 and CYP2C9 were similar.

in vitro = conditions: human
P-gp [8] = target: T3, P-gp; experiment: P-gp inhibition (Ki calculated from IC50); assay type: in vitro ADME; conditions: calculated with IC50, substrate concentration and substrate Km
CYP1A2 = CYP1A2 mRNA induction in cultured human hepatocytes; assay type: cell-based; conditions: in vitro studies
MATE1 = MATE1 (Homo sapiens, UniProt Q96FL8); experiment: Transporter substrate/inhibitor assessment, MATE1; assay type: in vitro ADME
[9] = Fraction unbound (fu) in human plasma; assay type: in vitro ADME
MATE2K = MATE2K (Homo sapiens, UniProt Q86VL8); experiment: Transporter substrate/inhibitor assessment, MATE2K; assay type: in vitro ADME
CYP3A4 = CYP3A4 (Homo sapiens, UniProt P08684); experiment: Intrinsic clearance in human recombinant CYP3A4
[10] = Human mass balance study with [14C]olverembatinib (NCT04126707); assay type: in vivo
Protocol: After a 3-day washout period, they were pretreated with 200 mg of oral itraconazole once daily for 4 days to inhibit CYP3A4 (Days 5–8). […] After a 3-day washout, subjects were pretreated with 600 mg of oral rifampicin once daily for 7 days to induce CYP3A4 (Days 5–11). […] Blood samples were collected immediately before and after drug administration at 0.5, 1, 2, 4, 6, 8, 12, 24, 48, 72, and 96 h.

[11] = single radiolabeled 30 mg dose, healthy subjects

T2 sequence (P11712 whole entry): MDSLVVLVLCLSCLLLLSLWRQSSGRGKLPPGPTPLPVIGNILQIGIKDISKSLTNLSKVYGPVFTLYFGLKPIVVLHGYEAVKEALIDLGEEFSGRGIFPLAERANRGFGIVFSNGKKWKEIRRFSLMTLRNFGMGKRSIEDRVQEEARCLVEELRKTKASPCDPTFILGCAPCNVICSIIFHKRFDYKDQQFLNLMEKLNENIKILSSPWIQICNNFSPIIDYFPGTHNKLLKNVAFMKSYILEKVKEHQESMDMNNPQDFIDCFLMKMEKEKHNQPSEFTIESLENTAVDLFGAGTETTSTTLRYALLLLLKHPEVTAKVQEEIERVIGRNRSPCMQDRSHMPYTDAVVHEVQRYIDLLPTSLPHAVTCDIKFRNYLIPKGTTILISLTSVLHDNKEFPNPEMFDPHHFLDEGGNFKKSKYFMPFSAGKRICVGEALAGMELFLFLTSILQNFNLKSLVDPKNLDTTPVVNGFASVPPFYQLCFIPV
T3 sequence (P08183 whole entry): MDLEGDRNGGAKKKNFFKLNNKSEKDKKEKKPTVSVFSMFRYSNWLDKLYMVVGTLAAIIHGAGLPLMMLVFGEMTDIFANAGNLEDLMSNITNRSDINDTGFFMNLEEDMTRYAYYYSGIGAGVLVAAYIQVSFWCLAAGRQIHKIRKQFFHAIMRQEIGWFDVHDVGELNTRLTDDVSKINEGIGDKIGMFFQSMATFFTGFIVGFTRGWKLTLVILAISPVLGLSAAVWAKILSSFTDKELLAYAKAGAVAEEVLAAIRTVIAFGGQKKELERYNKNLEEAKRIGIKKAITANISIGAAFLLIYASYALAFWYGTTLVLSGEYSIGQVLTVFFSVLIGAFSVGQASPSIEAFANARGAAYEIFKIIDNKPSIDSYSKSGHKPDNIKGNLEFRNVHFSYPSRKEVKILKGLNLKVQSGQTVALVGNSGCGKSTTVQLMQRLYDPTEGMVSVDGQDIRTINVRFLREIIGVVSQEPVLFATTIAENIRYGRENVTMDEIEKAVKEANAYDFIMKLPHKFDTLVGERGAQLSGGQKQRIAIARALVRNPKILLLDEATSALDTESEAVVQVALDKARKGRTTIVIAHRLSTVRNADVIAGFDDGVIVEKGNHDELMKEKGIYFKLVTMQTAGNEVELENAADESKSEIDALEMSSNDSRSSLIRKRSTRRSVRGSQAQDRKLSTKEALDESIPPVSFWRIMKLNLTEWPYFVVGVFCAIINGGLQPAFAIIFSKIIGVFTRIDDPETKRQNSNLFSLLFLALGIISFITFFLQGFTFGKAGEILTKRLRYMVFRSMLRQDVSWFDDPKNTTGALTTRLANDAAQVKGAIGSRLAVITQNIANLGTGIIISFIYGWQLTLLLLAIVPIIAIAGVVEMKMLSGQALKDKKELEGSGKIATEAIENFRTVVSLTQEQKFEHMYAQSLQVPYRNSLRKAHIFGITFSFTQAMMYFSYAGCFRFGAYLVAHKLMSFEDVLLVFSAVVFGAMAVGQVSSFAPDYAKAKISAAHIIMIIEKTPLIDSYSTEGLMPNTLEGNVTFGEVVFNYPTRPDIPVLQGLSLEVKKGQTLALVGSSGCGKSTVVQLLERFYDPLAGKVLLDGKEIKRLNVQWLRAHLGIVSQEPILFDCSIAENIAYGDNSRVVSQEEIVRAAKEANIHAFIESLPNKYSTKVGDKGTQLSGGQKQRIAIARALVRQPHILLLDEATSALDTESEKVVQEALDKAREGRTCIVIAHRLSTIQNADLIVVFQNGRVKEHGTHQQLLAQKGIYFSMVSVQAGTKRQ
CYP3A4, sequence (P08684 whole entry): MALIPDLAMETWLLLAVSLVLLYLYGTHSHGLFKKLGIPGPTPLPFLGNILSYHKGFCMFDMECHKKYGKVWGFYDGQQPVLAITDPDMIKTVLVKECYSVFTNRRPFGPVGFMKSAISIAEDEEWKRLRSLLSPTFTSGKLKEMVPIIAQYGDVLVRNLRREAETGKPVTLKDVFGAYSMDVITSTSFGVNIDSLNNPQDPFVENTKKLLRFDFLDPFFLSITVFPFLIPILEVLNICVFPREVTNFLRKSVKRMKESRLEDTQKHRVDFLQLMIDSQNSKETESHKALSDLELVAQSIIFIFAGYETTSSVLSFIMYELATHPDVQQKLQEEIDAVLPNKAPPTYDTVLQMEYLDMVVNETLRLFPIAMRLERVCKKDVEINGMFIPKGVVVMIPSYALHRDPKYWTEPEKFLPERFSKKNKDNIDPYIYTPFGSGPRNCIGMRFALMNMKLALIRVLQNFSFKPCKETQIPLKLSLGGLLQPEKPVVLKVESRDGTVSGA
MATE2K, sequence (Q86VL8 1-566 isoform Q86VL8-3, species assumed): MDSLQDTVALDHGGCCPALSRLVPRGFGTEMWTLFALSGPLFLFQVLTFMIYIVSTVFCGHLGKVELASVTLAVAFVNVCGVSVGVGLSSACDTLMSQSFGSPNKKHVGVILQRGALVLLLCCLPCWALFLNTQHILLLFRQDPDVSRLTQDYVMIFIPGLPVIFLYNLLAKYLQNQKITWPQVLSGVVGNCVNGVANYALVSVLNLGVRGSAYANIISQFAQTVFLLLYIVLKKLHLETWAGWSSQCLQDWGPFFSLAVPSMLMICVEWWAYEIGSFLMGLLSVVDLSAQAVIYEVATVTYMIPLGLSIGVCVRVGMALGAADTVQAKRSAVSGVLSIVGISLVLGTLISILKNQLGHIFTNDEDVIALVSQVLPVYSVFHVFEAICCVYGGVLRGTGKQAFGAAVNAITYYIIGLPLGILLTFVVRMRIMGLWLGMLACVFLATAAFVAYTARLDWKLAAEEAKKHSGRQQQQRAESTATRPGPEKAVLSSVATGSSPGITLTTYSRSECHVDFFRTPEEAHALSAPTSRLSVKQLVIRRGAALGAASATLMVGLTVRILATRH
MATE1, sequence (Q96FL8 whole entry, species assumed): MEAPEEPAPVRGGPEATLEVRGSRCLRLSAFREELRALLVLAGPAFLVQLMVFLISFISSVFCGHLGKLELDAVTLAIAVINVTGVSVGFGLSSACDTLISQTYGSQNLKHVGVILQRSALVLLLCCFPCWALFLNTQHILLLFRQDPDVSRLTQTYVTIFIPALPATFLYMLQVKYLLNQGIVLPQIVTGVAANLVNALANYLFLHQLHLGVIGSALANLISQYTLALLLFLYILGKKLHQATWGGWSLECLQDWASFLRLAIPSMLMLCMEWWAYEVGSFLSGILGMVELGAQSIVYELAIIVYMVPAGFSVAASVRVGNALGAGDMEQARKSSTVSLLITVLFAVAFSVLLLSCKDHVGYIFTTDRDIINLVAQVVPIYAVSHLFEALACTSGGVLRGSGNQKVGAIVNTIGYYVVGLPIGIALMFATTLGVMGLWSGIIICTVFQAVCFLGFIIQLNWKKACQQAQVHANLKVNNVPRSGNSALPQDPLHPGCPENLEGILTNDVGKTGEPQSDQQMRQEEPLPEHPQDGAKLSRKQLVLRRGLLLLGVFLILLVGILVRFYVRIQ

Cc1ccc(C(=O)Nc2ccc(CN3CCN(C)CC3)c(C(F)(F)F)c2)cc1C#Cc1cnc2[nH]ncc2c1 [olverembatinib, Olverembatinib]
CYP2C9 induction, strength (CYP2C9 [1]; hepatocytes): weak
EC50 (CYP2C9 [1]; human): 323 nM
substrate or inhibitor of OCT2 (OCT2): neither a substrate nor inhibitor
Log Po:w [2]: 3.6
pKa (pKa; read-out: pKa 1): 2.9
pKa (pKa; read-out: pKa 2): 10.9
CLint CYP2C9 (CYP2C9 [3]): 0.022 µL/min/pmol CYP
mean conc (N=3) ([4]; blood H): 43.5
mean conc (N=3) ([4]; blood L): 0.395
mean conc (N=3) ([4]; blood M): 4.01
mean conc (N=3) ([4]; plasma H): 45.9
mean conc (N=3) ([4]; plasma L): 0.25
mean conc (N=3) ([4]; plasma M): 2.95
in vivo inhibition on P-gp (P-gp [5]): no obvious in vivo inhibition
substrate of P-gp (P-gp [5]): is a substrate
substrate or inhibitor of OATP1B3 (OATP1B3): neither a substrate nor inhibitor
CL renal [6]: 2.2 mL/min
Ki (CYP2C9 [7]): 1140 nM
CYP2C9 inhibition, strength (CYP2C9 [7]; microsomes): weak
microsomal CLint (in vitro): 5.26 µL/min/mg
Ki (P-gp [8]): 2230 nM
CYP1A2 induction, strength (CYP1A2): weak
substrate or inhibitor of MATE1 (MATE1): neither a substrate nor inhibitor
fraction unbound ([9]; mean of three test concentrations, read-out: mean fu (fu,p, fraction unbound in plasma)): 0.0005
fraction unbound at 80 ng/ml ([9]; test concentration 80 ng/ml, read-out: fu (N=3)): 0.0007
fraction unbound at 400 ng/ml ([9]; test concentration 400 ng/ml, read-out: fu (N=3)): 0.0004
fraction unbound at 4000 ng/ml ([9]; test concentration 4000 ng/ml, read-out: fu (N=3)): 0.0004
substrate or inhibitor of MATE2K (MATE2K): neither a substrate nor inhibitor
CLint CYP3A4 (CYP3A4): 0.200 µL/min/pmol CYP
AUC Obs. ([10]; Chinese healthy volunteers, fasting, 26.85 mg SD): 153 h?ng/mL
Cmax ([10]; male, human, plasma, oral, Chinese healthy volunteers, fasting, 26.85 mg SD): 8.09 ng/mL
Tmax ([10]; male, human, plasma, oral, Chinese healthy volunteers, fasting, 26.85 mg SD, read-out: Tmax Obs. (median)): 6 h
cleared drug unchanged in feces [10, 11]: About 23.95%
eliminated as the parent drug in urine [10, 11]: 0.02%
dose recovered in urine ([10]; single radiolabeled 30 mg dose, healthy subjects, within 96 h): 1.57%
dose recovered in feces ([10]; single radiolabeled 30 mg dose, healthy subjects, within 216 h): 87.68%
